Test results from patent US9340577B2, “HLA binding motifs and peptides and their uses” (priority 1992, dated 2016).
Read-outs that look alike come from different tables or passages of the source. No end group written: not given here.

Legend:
Test in all cases: biochemical
DR1 (DRB1*0101) = DR1 (DRB1*0101) (Homo sapiens, UniProt P01903+P01911, A100R/D57E/F55L/F60I/F76Y/I96L/L162R/M171V/P40L/Q125E/R42F/V115G/Y59C); type: binding
DR4w4 (DRB1*0401) = DR4w4 (DRB1*0401) (Homo sapiens, UniProt P01903+P01911, A100K/A169T/F76Y/I96L/K127E/L162R/M171V/N62H/P40V/Q125Y/R42H/S133A/S149N/S66Y/V115G/V209L/W38E); type: binding
DRB1*0301 = DRB1*0301 (Homo sapiens, UniProt P01903+P01911, A100K/A102G/A103R/A169T/F55Y/I96L/K41T/L162R/M171V/P40S/Q125H/Q178H/Q39Y/R42S/S66N/T106N/T262R/W38E/Y61H); type: binding
DRB1*0802 = DRB1*0802 (Homo sapiens, UniProt P01903+P01911, A100R/A103L/A169T/F76Y/H45Y/I96F/K41T/L162R/M171V/P40S/Q125H/Q178H/Q39Y/Q99D/R218S/R42G/S66Y/V115G/W38E); type: binding
DRB1*0901 = DRB1*0901 (Homo sapiens, UniProt P01903+P01911, A100R/A103E/D57H/D86V/F55Y/F60I/F76Y/I96F/K127E/L162R/M171V/P40D/Q125H/Q99R/R33Q/R42F/S133A/S66N/T210M/V115G/W38K/Y107V/Y59G/Y89S); type: binding
DRB1*1201 = DRB1*1201 (Homo sapiens, UniProt P01903+P01911, A100R/A169T/D57E/D86V/F55L/H45Y/K41T/L162R/M171V/P40S/Q125H/Q178H/Q39Y/Q99D/R42G/S66L/T262R/V114A/V67L/W38E/Y59H/Y61H/Y89S); type: binding
DRB1*1302 = DRB1*1302 (Homo sapiens, UniProt P01903+P01911, A100E/A169T/K41T/L162R/M171V/P40S/Q125H/Q178H/Q39Y/Q99D/R42S/S66N/T262R/V115G/W38E/Y61H); type: binding
DRB1*1501 = DRB1*1501 (Homo sapiens, UniProt P01903+P01911); type: binding
DRB4*0101 = DRB4*0101 (Homo sapiens, UniProt P01903+P13762, G164S); type: binding
DR7 (DRB1*0701) = DR7 (DRB1*0701) (Homo sapiens, UniProt P01903+P01911, A100R/A102G/A103Q/D57E/D86V/E43K/F76Y/K127E/L162R/M171V/P40G/Q125H/Q99D/R33Q/R42Y/R54Q/S133A/S66F/T210M/V115G/Y107V/Y59L/Y89S); type: binding
DRB1*1101 = DRB1*1101 (Homo sapiens, UniProt P01903+P01911, A100R/A169T/A87E/I96F/K41T/L162R/M171V/P40S/Q125H/Q178H/Q39Y/Q99D/R42S/S66Y/T262R/V115G/W38E)
DRB5*0101 = DRB5*0101 (Homo sapiens, UniProt P01903+Q30154)

Sequence of DRB1*0301 (P01903 26-254 limits assumed, other chains not shown): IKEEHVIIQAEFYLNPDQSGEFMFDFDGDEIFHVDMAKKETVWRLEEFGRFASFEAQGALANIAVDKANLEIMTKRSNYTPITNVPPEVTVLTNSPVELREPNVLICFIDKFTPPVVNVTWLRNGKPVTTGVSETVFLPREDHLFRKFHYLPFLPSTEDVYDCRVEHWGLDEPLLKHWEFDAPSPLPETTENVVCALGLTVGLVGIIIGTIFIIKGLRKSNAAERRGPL
Sequence of DRB1*1101 (P01903 26-254 limits assumed, other chains not shown): as above
Sequence of DRB1*1302 (P01903 26-254 limits assumed, other chains not shown): as above

Compound | IC50 (DR1 (DRB1*0101)) [nM] | IC50 (DR4w4 (DRB1*0401)) [nM] | IC50 (DRB1*0301) [nM] | IC50 (DRB1*0802) [nM] | IC50 (DRB1*0901) [nM] | IC50 (DRB1*1201) [nM] | IC50 (DRB1*1302) [nM] | IC50 (DRB1*1501) [nM] | IC50 (DRB4*0101) [nM] | IC50 (DR7 (DRB1*0701)) [nM] | IC50 (DRB1*1101; Binding affinity DRB1 *1101) [nM] | IC50 (DRB5*0101; Binding affinity DRB5 *0101) [nM] | IC50 (DRB1*1101) [nM] | IC50 (DRB5*0101) [nM]
LKLFLKGVPKKNCIL [Peptide 89.0054] | 200 | 2910 | 9900 | 341 | 2010 | 1730 | 3380 | 3350 | 619 | – | – | – | – | –
IIHLKGDPNSLKCLR [Peptide 90.0228] | – | 121 | 11 | 877 | > 20000 | 5830 | 163 | – | 1900 | 2540 | > 20000 | 1330 | – | –
GKSLFGMSLMKFLQG [Peptide 89.0019] | 17 | 468 | 2740 | 704 | 148 | 80 | 2030 | 2780 | 369 | 16 | 1360 | 513 | – | –
ESDMAFEYALLADSN [Peptide 90.0055] | 57 | 24 | 591 | 5730 | 826 | 16300 | 1850 | 428 | 165 | – | 4680 | – | – | –
CSCC[C@H](NC(=O)[C@H](Cc1ccc(O)cc1)NC(=O)[C@H](Cc1ccc(O)cc1)NC(=O)[C@@H](NC(=O)[C@@H](N)CO)C(C)C)C(=O)N[C@H](C(=O)N[C@@H](CC(=O)O)C(=O)N[C@@H](C)C(=O)NCC(=O)N[C@H](C(=O)N[C@@H](Cc1c[nH]c2ccccc12)C(=O)N[C@@H](CC(=O)O)C(=O)N[C@@H](CCCCN)C(=O)N[C@H](C(=O)N[C@@H](C)C(=O)O)[C@@H](C)O)[C@@H](C)O)[C@@H](C)O [Peptide 90.0182] | 9.3 | – | 328 | 8460 | 1600 | 708 | 14 | 43 | 7 | – | 2880 | > 20000 | – | –
RYRFQKYKTLFVDVT [Peptide 90.0019] | 74 | 623 | 5630 | 407 | 226 | 4510 | 2170 | 590 | 4110 | 43 | 728 | – | – | –
NCILLYGAANTGKSL [Peptide 89.0017] | 81 | – | > 20000 | 2690 | – | > 20000 | 2120 | – | 525 | > 20000 | 5780 | 442 | – | –
DDRWPYLHSRLVVFT [Peptide 89.0058] | 29 | > 20000 | > 20000 | 1700 | 158 | 297 | 2190 | 284 | 297 | 68 | – | > 20000 | – | –
WKLIRMECALLYTAK [Peptide 90.0199] | – | – | 141 | 2700 | 4000 | 159 | 98 | 509 | 62 | 3160 | 2000 | 3630 | – | –
CC[C@H](C)[C@H](NC(=O)CNC(=O)[C@@H](NC(=O)[C@H](CCCCN)NC(=O)[C@H](Cc1ccc(O)cc1)NC(=O)[C@H](Cc1c[nH]c2ccccc12)NC(=O)[C@H](Cc1ccc(O)cc1)NC(=O)[C@@H](N)CC(C)C)[C@@H](C)O)C(=O)N[C@@H](CO)C(=O)N[C@@H](CC(N)=O)C(=O)N[C@H](C(=O)N[C@@H](CO)C(=O)N[C@@H](CCC(=O)O)C(=O)N[C@H](C(=O)N[C@@H](Cc1ccc(O)cc1)C(=O)O)C(C)C)[C@@H](C)CC [Peptide 89.0009] | 41 | 20 | > 20000 | 1440 | 631 | 4620 | 319 | – | – | 19 | 6280 | 634 | – | –
KSLFGMSLMKFLQGS [Peptide 89.0020] | – | 573 | > 20000 | – | 310 | 944 | 4670 | 2110 | 449 | 21 | 535 | – | – | –
RLTVAKGLSTLLHVP [Peptide 89.0028] | 46 | 53 | 14500 | 501 | 399 | 274 | 675 | – | 406 | 180 | 232 | – | – | –
TVTFVTEQQQQMFLG [Peptide 90.0210] | 1950 | – | 41 | 6020 | > 20000 | 2770 | > 20000 | > 20000 | – | > 20000 | > 20000 | > 20000 | – | –
LKSFLKGTPKKNCLV [Peptide 89.0035] | 30 | 320 | > 20000 | 208 | 2690 | 3230 | 430 | 5190 | 4740 | – | – | – | – | –
RLNVCQDKILTHYEN [Peptide 90.0160] | 2.7 | 3.5 | 307 | – | 50 | 256 | 96 | 3800 | 0.61 | 7980 | 372 | 1640 | – | –
WKAVRHENVLYYKAR [Peptide 90.0230] | 164 | 718 | 76 | 613 | – | 415 | 264 | – | 189 | 666 | – | – | 2120 | 762
IHFIQGAVISFVNST [Peptide 89.0037] | 31 | 5130 | > 20000 | 11700 | – | 732 | – | 6980 | 155 | 338 | > 20000 | > 20000 | – | –
CC[C@H](C)[C@H](NC(=O)[C@H](Cc1c[nH]cn1)NC(=O)[C@H](C)NC(=O)[C@H](Cc1ccc(O)cc1)NC(=O)[C@H](CC(C)C)NC(=O)[C@@H](NC(=O)[C@H](Cc1ccccc1)NC(=O)[C@@H]1CCCN1C(=O)[C@H](CCC(N)=O)NC(=O)[C@@H](NC(=O)[C@H](CC(C)C)NC(=O)[C@@H](NC(=O)[C@H](CCCCN)NC(=O)[C@@H](N)Cc1ccccc1)[C@@H](C)O)[C@@H](C)CC)[C@@H](C)CC)C(=O)N[C@@H](CCC(N)=O)C(=O)O [Peptide 89.0025] | 27 | 728 | > 20000 | – | 97 | 513 | – | 20 | 9.6 | 882 | – | 8430 | – | –
CSCC[C@H](NC(=O)[C@@H]1CCCN1C(=O)[C@@H](N)CC(=O)O)C(=O)N[C@@H](Cc1ccccc1)C(=O)N[C@@H](CCCCN)C(=O)N[C@@H](Cc1ccc(O)cc1)C(=O)N[C@@H](Cc1c[nH]cn1)C(=O)N[C@@H](CC(C)C)C(=O)N[C@H](C(=O)N[C@H](C(=O)N[C@@H](C)C(=O)N[C@@H](CCC(N)=O)C(=O)N[C@H](C(=O)N[C@@H](CCCNC(=N)N)C(=O)NCC(=O)O)C(C)C)C(C)C)[C@@H](C)O [Peptide 68.0118] | – | – | > 20000 | – | – | 470 | – | – | – | – | – | – | – | –
